Measurements taken from patent US20090186874A1, “Carboxamide derivative and use thereof” (priority 2004, published 2009).
Counter-ions that a name gives are not always drawn.

target: T1, substance P receptor (Homo sapiens, UniProt P25103); assay: Radioligand receptor binding inhibitory activity (125I-BHSP binding to receptor from IM-9 cells); conditions: receptor from human lymphoblast cells (IM-9); radioligand 125I-BHSP; 25° C., 30 minutes
T1 construct: The receptor was prepared from human lymphoblast cells (IM-9); endogenous in cells; host or cells: IM-9 human lymphoblast cells (membrane preparation)
Procedure: Radioligand receptor binding inhibitory activity (Binding inhibitory activity using receptor from human lymphoblast cells (IM-9))
The residue was washed twice with 30 mL of the above-mentioned buffer, which was then preserved frozen (−80° C.) as a specimen of the receptor.
The specimen was suspended in a reaction buffer (50 mM Tri-HCl buffer (pH 7.4), 0.02% bovine serum albumin, 1 mM phenylmethylsulfonyl fluoride, 2 μg/mL chymostatin, 40 μg/mL bacitracin and 3 mM manganese chloride) to have protein in the concentration of 0.5 mg/mL of protein and 100 μl portion of the suspension was used in the reaction. […] The amount of nonspecific binding was determined by adding substance P at a final concentration of 2×10^−6 M.
After the reaction, using a cell harvester (290 PHD, Cambridge Technology, Inc, U.S.A.), filtration was carried out through a glass filter (GF/B, Whatman, U.S.A.), which was immersed in 0.1% polyethyleneimine for 24 hours and dried. After washing three times with 250 μL of 50 mM Tris-HCl buffer (pH 7.4) containing 0.02% bovine serum albumin, the radioactivity remaining on the filter was determined with a gamma counter.

T1 sequence (P25103 whole entry): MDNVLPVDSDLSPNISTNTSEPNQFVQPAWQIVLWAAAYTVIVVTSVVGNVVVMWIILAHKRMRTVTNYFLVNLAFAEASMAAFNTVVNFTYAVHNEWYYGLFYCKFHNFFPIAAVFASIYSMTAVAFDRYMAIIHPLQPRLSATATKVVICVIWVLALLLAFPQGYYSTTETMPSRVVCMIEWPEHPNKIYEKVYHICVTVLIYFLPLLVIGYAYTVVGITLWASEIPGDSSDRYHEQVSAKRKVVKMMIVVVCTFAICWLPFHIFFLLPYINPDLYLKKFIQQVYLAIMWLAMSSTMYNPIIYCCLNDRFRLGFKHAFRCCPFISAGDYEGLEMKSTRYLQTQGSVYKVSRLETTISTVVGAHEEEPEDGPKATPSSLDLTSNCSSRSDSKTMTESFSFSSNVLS

Row | SMILES | IC50 [pM]
1 | Cc1cc(F)ccc1[C@@H]1CNCC[C@H]1C(=O)N(C)Cc1cc(C(F)(F)F)cc(C(F)(F)F)c1 (relative stereo) [Example 12, (3R*,4R*)-N-[3,5-bis(trifluoromethyl)benzyl]-3-(4-fluoro-2-methylphenyl)-N-methylpiperidine-4-carboxamide hydrochloride] | 51
2 | CC(=O)N1CCC(C(=O)N2CC[C@H](C(=O)N(C)Cc3cc(C(F)(F)F)cc(C(F)(F)F)c3)[C@H](c3ccccc3)C2)CC1 (relative stereo) [Example 30, (3R*,4S*)-1-[(1-acetylpiperidin-4-yl)carbonyl]-N-[3,5-bis(trifluoromethyl)benzyl]-N-methyl-3-phenylpiperidine-4-carboxamide] | 49
3 | CC(=O)N1CCC(C(=O)N2CC[C@@H](C(=O)N(C)Cc3cc(C(F)(F)F)cc(C(F)(F)F)c3)[C@H](c3ccccc3)C2)CC1 (relative stereo) [Example 35, (3R*,4R*)-1-[(1-acetylpiperidin-4-yl)carbonyl]-N-[3,5-bis(trifluoromethyl)benzyl]-N-methyl-3-phenylpiperidine-4-carboxamide] | 98
4 | COCC(=O)N1CC[C@@H](C(=O)N(C)Cc2cc(C(F)(F)F)cc(C(F)(F)F)c2)[C@H](c2ccc(F)cc2C)C1 (relative stereo) [Example 40, (3R*,4R*)-N-[3,5-bis(trifluoromethyl)benzyl]-3-(4-fluoro-2-methylphenyl)-1-(methoxyacetyl)-N-methylpiperidine-4-carboxamide] | 58
5 | CCN(CC)CCC(=O)N1CC[C@@H](C(=O)N(C)Cc2cc(C(F)(F)F)cc(C(F)(F)F)c2)[C@H](c2ccc(F)cc2C)C1 (relative stereo) [Example 41, (3R*,4R*)-N-[3,5-bis(trifluoromethyl)benzyl]-1-(N,N-diethyl-β-alanyl)-3-(4-fluoro-2-methylphenyl)-N-methylpiperidine-4-carboxamide Hydrochloride] | 25
6 | Cc1cc(F)ccc1[C@@H]1CN(C(=O)Cn2cnnn2)CC[C@H]1C(=O)N(C)Cc1cc(C(F)(F)F)cc(C(F)(F)F)c1 (relative stereo) [Example 42, (3R*,4R*)-N-[3,5-bis(trifluoromethyl)benzyl]-3-(4-fluoro-2-methylphenyl)-N-methyl-1-(1H-tetrazol-1-ylacetyl)piperidine-4-carboxamide] | 22
7 | Cc1cc(F)ccc1[C@@H]1CN(C(=O)CC2NC(=O)NC2=O)CC[C@H]1C(=O)N(C)Cc1cc(C(F)(F)F)cc(C(F)(F)F)c1 (relative stereo) [Example 43, (3R*,4R*)-N-[3,5-bis(trifluoromethyl)benzyl]-1-[(2,5-dioxoimidazolidin-4-yl)acetyl]-3-(4-fluoro-2-methylphenyl)-N-methylpiperidine-4-carboxamide] | 64
8 | CC(=O)N1CCC(C(=O)N2CC[C@H](C(=O)N(C)Cc3cc(C(F)(F)F)cc(C(F)(F)F)c3)[C@H](c3ccc(F)cc3)C2)CC1 (relative stereo) [Example 44, (3R*,4S*)-1-[(1-acetylpiperidin-4-yl)carbonyl]-N-[3,5-bis(trifluoromethyl)benzyl]-3-(4-fluorophenyl)-N-methylpiperidine-4-carboxamide] | 19
9 | CC(=O)N1CCC(C(=O)N2CC[C@@H](C(=O)N(C)Cc3cc(C(F)(F)F)cc(C(F)(F)F)c3)[C@H](c3ccc(F)cc3)C2)CC1 (relative stereo) [Example 45, (3R*,4R*)-1-[(1-acetylpiperidin-4-yl)carbonyl]-N-[3,5-bis(trifluoromethyl)benzyl]-3-(4-fluorophenyl)-N-methylpiperidine-4-carboxamide] | 52
10 | CC(=O)N1CCC(C(=O)N2CC[C@@H](C(=O)N(C)Cc3cc(C(F)(F)F)cc(C(F)(F)F)c3)[C@H](c3ccc(F)cc3C)C2)CC1 (relative stereo) [Example 46, (3R*,4R*)-1-[(1-acetylpiperidin-4-yl)carbonyl]-N-[3,5-bis(trifluoromethyl)benzyl]-3-(4-fluoro-2-methylphenyl)-N-methylpiperidine-4-carboxamide] | 47
11 | Cc1cc(F)ccc1[C@@H]1CN(Cc2n[nH]c(=O)[nH]2)CC[C@H]1C(=O)N(C)Cc1cc(C(F)(F)F)cc(C(F)(F)F)c1 (relative stereo) [Example 54, (3R*,4R*)-N-[3,5-bis(trifluoromethyl)benzyl]-3-(4-fluoro-2-methylphenyl)-N-methyl-1-[(5-oxo-4,5-dihydro-1H-1,2,4-triazol-3-yl)methyl]piperidine-4-carboxamide] | 36
12 | Cc1cc(F)ccc1[C@@H]1CN(C(=O)C(N)=O)CC[C@H]1C(=O)N(C)Cc1cc(C(F)(F)F)cc(C(F)(F)F)c1 (relative stereo) [Example 73, (3R*,4R*)-1-[amino(oxo)acetyl]-N-[3,5-bis(trifluoromethyl)benzyl]-3-(4-fluoro-2-methylphenyl)-N-methylpiperidine-4-carboxamide] | 52
13 | Cc1cc(F)ccc1[C@@H]1CN(C(N)=O)CC[C@H]1C(=O)N(C)Cc1cc(C(F)(F)F)cc(C(F)(F)F)c1 (relative stereo) [Example 75, (3R*,4R*)-N^4-[3,5-bis(trifluoromethyl)benzyl]-3-(4-fluoro-2-methylphenyl)-N^4-methylpiperidine-1,4-dicarboxamide] | 35
14 | CC(=O)NCC(=O)N1CC[C@@H](C(=O)N(C)Cc2cc(C(F)(F)F)cc(C(F)(F)F)c2)[C@H](c2ccc(F)cc2C)C1 (relative stereo) [Example 77, (3R*,4R*)-1-(N-acetylglycyl)-N-[3,5-bis(trifluoromethyl)benzyl]-3-(4-fluoro-2-methylphenyl)-N-methylpiperidine-4-carboxamide] | 43
